Data on one compound can be found in patent publication US6630124B1, “Combination therapy with VIP antagonist” (Ramot-University Authority for Applied Research and …, priority 1998, dated 2003).

Data set [1] deals with nonsmall cell lung cancer line. Particulars: 2 mM of the antagonist.
Procedure: Assays were performed with cell lines derived from colon cancer and prostate cancer. Proliferation was assessed using the MTS colorimetric assay of mitochondrial function for living cells. The VIP antagonist (stearyl-Nle17-neurotensis 6-11 VIP 7-28) was used.
In data set [2] the test system is NCI-H727 non-small cell lung cancer (carcinoid). Briefly: MTS cell proliferation assay, SNH and chemotherapy. The class given is cell-based. Particulars: 8 μM SNH, 6 hour incubation, then 66 hour fresh medium. As for the experimental part: NCI-H727 and LNCaP were grown in RPMI 1640 medium supplemented with 10% heat inactivated FCS, L-glutamine and antibiotics. HT-29 and CT-26 were grown in DMEM medium supplemented with 10% heat-inactivated FCS (fetal calf serum), L-glutamine and antibiotics. The cells were cultured in 5% CO2/95% air at […] and used during their exponential growth phase. Routinely, the cells which are adherent, were split when a subconfluent monolayer was formed. In different experiments, various concentration of FCS were used. For growth inhibition experiments, subconfluent adherent cells were washed with PBS and treated with trypsin/versene. The cells were pelleted and resuspended in medium to a final concentration of 75,000 cells/mL for NCI-H727. 50,000 cells/mL for LNCaP and HT-29 and 25000 cells/mL for CT-26. These different concentrations were used in order to avoid confluence in the wells at the end of the experiment and correspond to the different doubling times of the cell lines. On day 0, cells suspensions […] were dispensed using a multi-channel pipet into the individual wells of a 96-well tissue culture plate (Nuncion, Nunc Brand Products). […] Cells were incubated for 24 hours in a humidified atmosphere of 95% air/5% CO2 at 37° C. before treatment. On day 1, the cells were treated with different drugs and schedules and maintained under the same conditions. On day 4, viable cell number was determined by a modified MTT assay i.e., MTS non-radioactive cell proliferation assay (Promega). […] Results were finally expressed as percentage of the control, which was obtained from the samples with no drug treatment. Dose-response curves were plotted using a Sigma-Plot software and statistically analyzed using Student test. To determine the effect of the lipophilic VIP antagonist SNH on cell proliferation, cells plated in 96-well microplates for 24 hours as described, were treated with various concentrations of SNH. The peptide was diluted in PBS and […] of the peptide solution was added to each well for a final concentration of the peptide between 10^−510^−9 M. The solvent was added to the control wells. […] A dose-response curve was obtained at concentrations ranging from 2 μM-10 μM (see, FIG. 2). […] The effects of an 8 hours treatment were slightly less, showing that most of the effect is in the initial hours of exposure and much more dose than time dependent. […] For the experiments with the combinations of VIP antagonists and chemotherapeutic agents, on day 0, the cells were plated for 24 hours in medium supplemented with 5% FCS. On day 1, the peptide was added to the wells followed 1 hour later by the chemotherapeutic agents. […] The chemotherapeutic drugs were tested over 7 concentrations, covering as much as possible of the dose response curve of each individual drug. 24 hours later, the medium was exchanged and the cells incubated under the same conditions for another 48 hours. On day 4 the number of viable cells was determined by MTS assay.

Data set [3] has as its system U-87 cells. Briefly: U-87 colony formation in soft agar. The format is cell-based. As to conditions: in vitro. The text has this:
(§1) The effects of VIP receptor antagonists on glioblastoma cell lines were investigated.

Data set [4] deals with glioblastoma cell lines. Briefly: MTT assay, glioblastoma proliferation. The format is cell-based.
Excerpt: as §1

Data set [5] relates to VIP receptor (glioblastoma cells). Description: cAMP in glioblastoma cells, basal and VIP-stimulated. The class given is cell-based.
Excerpt: as §1

Data set [6] concerns MCF-7 cells. Briefly: MTT colorimetric assay, breast cancer cells (Example 6). The class given is cell-based. As to conditions: compared with VIPhyb. As for the experimental part:
The ability of VIP receptor antagonists to alter the growth of breast cancer cells was investigated in vitro using the MTT colorimetric. The semiautomated MTT assay measures reduction of a tetrazolium compound by tumor cells to formazan. The optical density at 570 nm was determined for 8 wells at each inhibitor concentration. Seeding densities were 5×10^4 cells/well and cells were grown in 96 well plates for 5 days.

The test system of data set [7] is cancer cells. Briefly: MTS cell proliferation assay, inhibition of cell growth by SNH. The class given is cell-based. The text has this:
For growth inhibition experiments, subconfluent adherent cells were washed with PBS and treated with trypsin/versene. The cells were pelleted and resuspended in medium to a final concentration of 75,000 cells/mL for NCI-H727. 50,000 cells/mL for LNCaP and HT-29 and 25000 cells/mL for CT-26. These different concentrations were used in order to avoid confluence in the wells at the end of the experiment and correspond to the different doubling times of the cell lines.
On day 0, cells suspensions […] were dispensed using a multi-channel pipet into the individual wells of a 96-well tissue culture plate (Nuncion, Nunc Brand Products). […] Cells were incubated for 24 hours in a humidified atmosphere of 95% air/5% CO2 at 37° C. before treatment. […]
On day 4, viable cell number was determined by a modified MTT assay i.e., MTS non-radioactive cell proliferation assay (Promega). Briefly, […] of freshly prepared MTS/PMS solution was added to each individual well and after 1-3 hours of incubation (the optimal time was determined for each cell line) absorbance at 490 nm was measured using a multiscan plate reader. Results were finally expressed as percentage of the control, which was obtained from the samples with no drug treatment. Dose-response curves were plotted using a Sigma-Plot software and statistically analyzed using Student test. […]
In general terms: Tetrazolium dyes change colour on reduction, which living cells bring about.

Data set [8] has as its system MCF-7 breast cancer cells. Briefly: MTT assay, Taxol with or without SNVIPhyb. Particulars: 10 μM SNVIPhyb, MTT assay. The class given is cell-based. The source says:
The ability of SNVIPhyb to inhibit cancer growth was investigated.

Where a SMILES comes first, the peptide text is derived from it. [ ]: non-standard residue; d: D form. The star is where a group is joined. Stearoyl = CCCCCCCCCCCCCCCCCC(=O)*; Nle = CCCC[C@H](N)C(=O)O

On to `CCCCCCCCCCCCCCCCCC(=O)N[C@@H](CCCCN)C(=O)N1CCC[C@H]1C(=O)N[C@@H](CCCNC(=N)N)C(=O)N[C@@H](CCCNC(=N)N)C(=O)N1CCC[C@H]1C(=O)N[C@@H](Cc1ccc(O)cc1)C(=O)N[C@H](C(=O)N[C@@H](CC(=O)O)C(=O)N[C@@H](CC(N)=O)C(=O)N[C@@H](Cc1ccc(O)cc1)C(=O)N[C@H](C(=O)N[C@@H](CCCNC(=N)N)C(=O)N[C@@H](CC(C)C)C(=O)N[C@@H](CCCNC(=N)N)C(=O)N[C@@H](CCCCN)C(=O)N[C@@H](CCC(N)=O)C(=O)N[C@@H](CCCC)C(=O)N[C@@H](C)C(=O)N[C@H](C(=O)N[C@@H](CCCCN)C(=O)N[C@@H](CCCCN)C(=O)N[C@@H](Cc1ccc(O)cc1)C(=O)N[C@@H](CC(C)C)C(=O)N[C@@H](CC(N)=O)C(=O)N[C@@H](CO)C(=O)N[C@H](C(=O)N[C@@H](CC(C)C)C(=O)N[C@@H](CC(N)=O)C(N)=O)[C@@H](C)CC)C(C)C)[C@@H](C)O)[C@@H](C)O` [SNH] (Stearoyl-KPRRPYTDNYTRLRKQ[Nle]AVKKYLNSILN-NH2), for which the growth inhibition in data set [1] is given as 15-20%. Besides, the “reduction in viable cells” value in data set [2] was found to be 40%. Besides, in data set [3], the “relative potency at inhibiting U-87 colony formation” value is on record as “more potent than VIP hybrid”. Also, in data set [4] (1 μM), the “effect on basal proliferation” value is “little effect”. In data set [4] (1 μM (SN)VIPhybrid with Taxol), the “interaction with Taxol to inhibit growth” value is given as “synergistically interacted”. Moreover, the “order of peptide potency, inhibition of VIP-stimulated cAMP” value in data set [5] (10 nM VIP) is reported as “(SN)VIPhybrid>VIP hybrid >PTC4495”. The “effect on basal cAMP” value in data set [5] (1 μM) is reported as “no effect”. Also, the “inhibition of the increase in cAMP caused by 10 nM VIP” value in data set [5] (1 μM, 10 nM VIP) was “strongly inhibited”. Moreover, the “relative potency as inhibitor of proliferation” value in data set [6] was “more potent inhibitor than VIPhyb”. Further, in data set [7] (10 mM of SNH), the “inhibition of the growth of cancer cells” value was “significantly inhibits”. In data set [7] (8-10 mM SNH, FCS lower than 2%), the “death of the cancer cells” value is on record as “complete or almost complete death”. Moreover, the “effect on MCF-7 breast cancer proliferation” value in data set [8] is on record as “little effect”.
